From ChEMBL document CHEMBL1125556, “Fluoroquinolones: relationships between structural variations, mammalian cell cytotoxicity, and antimicrobial activity” (J Med Chem, 1992)
Values after ≈ are worked out from the molar mass of the structure shown.

Tests used:
V79 = experiment: Mammalian cell cytotoxicity test in chinese hamster V79 cells (clonogenic cytotoxicity); type: functional, cell-based
[1] = Antibacterial activity against five Gram-negative bacteria; type: functional
[2] = Cricetulus griseus, V79, read-out: IC50

Structure (SMILES) | IC50 (V79; [2]) [µg/mL] | MIC ([1]; read-out: MIC) [µg/mL] | MIC [1] [µg/mL] | IC50 (V79; v79) [µg/mL]
NC1CCN(c2cc3c(c(O)c2F)c(=O)c(C(=O)O)cn3C2CC2)C1 (configuration not stated) | 72 (≈ 207 µM) | 0.04 (≈ 0.115 µM) | – | –
CCNCC1CCN(c2cc3c(cc2F)c(=O)c(C(=O)O)cn3CC)C1 (configuration not stated) | 310 (≈ 858 µM) | 0.56 (≈ 1.55 µM) | – | –
CCNCC1CCN(c2c(F)c(C)c3c(=O)c(C(=O)O)cn(C4CC4)c3c2F)C1 (configuration not stated) | 9 (≈ 22.2 µM) | 0.28 (≈ 0.691 µM) | – | –
Cc1c(F)c(N2CCC(N)C2)cc2c1c(=O)c(C(=O)O)cn2C1CC1 (configuration not stated) | 14 (≈ 40.5 µM) | 0.09 (≈ 0.261 µM) | – | –
CCNCC1CCN(c2c(F)cc3c(=O)c(C(=O)O)cn(CC(F)(F)F)c3c2F)C1 (configuration not stated) | 58 (≈ 134 µM) | 1.82 (≈ 4.2 µM) | – | –
CC1(CN)CCN(c2nc3c(cc2F)c(=O)c(C(=O)O)cn3C2CC2)C1 (configuration not stated) | 25 (≈ 69.4 µM) | 0.35 (≈ 0.971 µM) | – | –
COc1c(N2CCC(C)(CN)C2)c(F)cc2c(=O)c(C(=O)O)cn(C3CC3)c12 (configuration not stated) | 38 (≈ 97.6 µM) | 0.26 (≈ 0.668 µM) | – | –
NC1CCN(c2nc3c(cc2F)c(=O)c(C(=O)O)cn3C2CC2)C1 (configuration not stated) | 98 (≈ 295 µM) | 0.03 (≈ 0.0903 µM) | – | –
CCn1cc(C(=O)O)c(=O)c2cc(F)c(N3CCC(N)C3)c(F)c21 (configuration not stated) | 300 (≈ 889 µM) | 0.12 (≈ 0.356 µM) | – | –
Cc1c(F)c(N2CCC(N)C2)c(F)c2c1c(=O)c(C(=O)O)cn2C1CC1 (configuration not stated) | 11 (≈ 30.3 µM) | 0.02 (≈ 0.055 µM) | – | –
Nc1c(F)c(N2CCC(N)C2)cc2c1c(=O)c(C(=O)O)cn2C1CC1 (configuration not stated) | 54 (≈ 156 µM) | 0.04 (≈ 0.115 µM) | – | –
O=C(O)c1cn(C2CC2)c2c(Cl)c(N3CCNCC3)c(F)cc2c1=O | 43 (≈ 118 µM) | 0.07 (≈ 0.191 µM) | – | –
CC1(CN)CCN(c2cc3c(cc2F)c(=O)c(C(=O)O)cn3C2CC2)C1 (configuration not stated) | 23 (≈ 64 µM) | 0.52 (≈ 1.45 µM) | – | –
Nc1c(F)c(N2CCC(N)C2)c(Cl)c2c1c(=O)c(C(=O)O)cn2C1CC1 (configuration not stated) | 59 (≈ 155 µM) | 0.08 (≈ 0.21 µM) | – | –
NC1CCCN(c2cc3c(cc2F)c(=O)c(C(=O)O)cn3C2CC2)C1 (configuration not stated) | > 500 | 0.91 (≈ 2.63 µM) | – | –
NC1CCN(c2c(F)c(Cl)c3c(=O)c(C(=O)O)cn(C4CC4)c3c2Cl)C1 (configuration not stated) | > 500 | 0.13 (≈ 0.325 µM) | – | –
CCNCC1CCN(c2c(F)c(F)c3c(=O)c(C(=O)O)cn(C4CC4)c3c2F)C1 (configuration not stated) | 46 (≈ 112 µM) | 0.56 (≈ 1.37 µM) | – | –
COc1c(F)c(N2CCC(N)C2)c(Cl)c2c1c(=O)c(C(=O)O)cn2C1CC1 (configuration not stated) | > 500 | 2.08 (≈ 5.25 µM) | – | –
Cc1c(F)c(N2CCC(N)C2)c(C(F)(F)F)c2c1c(=O)c(C(=O)O)cn2C1CC1 (configuration not stated) | 290 (≈ 702 µM) | 0.91 (≈ 2.2 µM) | – | –
CCNCC1CCN(c2c(F)c(NC(C)=O)c3c(=O)c(C(=O)O)cn(C4CC4)c3c2F)C1 (configuration not stated) | > 500 | > 25 | – | –
CCNCC1CCN(c2cc3c(cc2F)c(=O)c(C(=O)O)cn3NC)C1 (configuration not stated) | > 500 | 12.5 (≈ 34.5 µM) | – | –

Structure (SMILES) | IC50 (V79; [2]) [µg/mL] | MIC ([1]; read-out: MIC) [µg/mL] | MIC [1] [µg/mL] | IC50 (V79; v79) [µg/mL]
NC1CCN(c2c(F)c(F)c3c(=O)c(C(=O)O)cn(C4CC4)c3c2C(F)(F)F)C1 (configuration not stated) | 190 (≈ 455 µM) | 25 (≈ 59.9 µM) | – | –
CCNCC1CCN(c2c(F)c(NC)c3c(=O)c(C(=O)O)cn(C4CC4)c3c2F)C1 (configuration not stated) | 53 (≈ 126 µM) | 0.69 (≈ 1.64 µM) | – | –
CC1CN(c2c(F)cc3c(=O)c(C(=O)O)cn(C4CC4)c3c2Cl)CC(C)N1 (configuration not stated) | 140 (≈ 355 µM) | 0.23 (≈ 0.584 µM) | – | –
CCNCC1CCN(c2c(F)cc3c(=O)c(C(=O)O)cn(CCF)c3c2F)C1 (configuration not stated) | > 500 | 0.4 (≈ 1.01 µM) | – | –
NC1CCN(c2cc3c(cc2F)c(=O)c(C(=O)O)cn3C2CC2)CC1 | 230 (≈ 666 µM) | 0.26 (≈ 0.753 µM) | – | –
COc1c(N2CCC(N)C2)c(F)c(N)c2c(=O)c(C(=O)O)cn(C3CC3)c12 (configuration not stated) | 100 (≈ 266 µM) | 0.11 (≈ 0.292 µM) | – | –
CNCC1(C)CCN(c2nc3c(cc2F)c(=O)c(C(=O)O)cn3C2CC2)C1 (configuration not stated) | 58 (≈ 155 µM) | 0.6 (≈ 1.6 µM) | – | –
O=C(O)c1cn(C2CC2)c2nc(N3CCNCC3)c(F)cc2c1=O | 120 (≈ 361 µM) | 0.09 (≈ 0.271 µM) | – | –
CCNCC1CCN(c2c(F)cc3c(=O)c(C(=O)O)cn(CC4CC4)c3c2F)C1 (configuration not stated) | 240 (≈ 592 µM) | 4.17 (≈ 10.3 µM) | – | –
CCNCC1CCN(c2c(F)cc3c(=O)c(C(=O)O)cn(NC)c3c2F)C1 (configuration not stated) | > 500 | 0.26 (≈ 0.684 µM) | – | –
CCNCC1CCN(c2c(F)cc3c(=O)c(C(=O)O)cn(C4CC4)c3c2F)C1 (stereo in doubt; 7) [PD-117558] | – | – | 0.09 (≈ 0.23 µM) | –
CCNCC1CCN(c2cc3c(cc2F)c(=O)c(C(=O)O)cn3C2CC2)C1 (stereo in doubt; 16) | – | – | 0.46 (≈ 1.23 µM) | –
CCNCC1CCN(c2c(F)cc3c(=O)c(C(=O)O)cn(C4CC4)c3c2F)C1 (stereo in doubt; 26b) [PD-117558] | – | – | – | 11 (≈ 28.1 µM)
NC1CCN(c2c(F)cc3c(=O)c(C(=O)O)cn(C4CC4)c3c2Cl)C1 (stereo in doubt; 33a) [CLINAFLOXACIN] | – | – | – | 26 (≈ 71.1 µM)
COc1c(N2CCC(N)C2)c(F)cc2c(=O)c(C(=O)O)cn(C3CC3)c12 (stereo in doubt; 35a) | 45 (≈ 125 µM) | – | – | –
CCNCC1CCN(c2c(F)cc3c(=O)c(C(=O)O)cn(C4CC4)c3c2Cl)C1 (stereo in doubt; 37a) | < 11 | – | – | –
NC1CCN(c2c(F)cc3c(=O)c(C(=O)O)cn(C4CC4)c3c2F)C1 (stereo in doubt; 43) | – | – | – | 30 (≈ 85.9 µM)
CCNCC1CCN(c2cc3c(cc2F)c(=O)c(C(=O)O)cn3C2CC2)C1 (stereo in doubt; 66) | – | – | – | 160 (≈ 428 µM)
CCNCC1CCN(c2c(F)cc3c(=O)c(C(=O)O)cn(C4CC4)c3c2Cl)C1 (stereo in doubt; 69) | – | – | 0.14 (≈ 0.343 µM) | –
CCn1cc(C(=O)O)c(=O)c2cc(F)c(N3CCN(C)CC3)cc21 [PEFLOXACIN] | – | 0.07 (≈ 0.21 µM) | – | –
